Counter-ions that a name gives are not always drawn.
Experiments:
[1] = target: T1, proMMP9(20-445;ΔFnII) (SEQ ID NO:6) (Homo sapiens, UniProt P14780, DEL216-390); test: ThermoFluor binding assay with proMMP9(20-445;ΔFnII)
T1 construct: start methionine (N); made in house; host or cells: E. coli BL21(DE3) RIL
T1 sequence (P14780 with tags, fused parts or gaps DEL216-390): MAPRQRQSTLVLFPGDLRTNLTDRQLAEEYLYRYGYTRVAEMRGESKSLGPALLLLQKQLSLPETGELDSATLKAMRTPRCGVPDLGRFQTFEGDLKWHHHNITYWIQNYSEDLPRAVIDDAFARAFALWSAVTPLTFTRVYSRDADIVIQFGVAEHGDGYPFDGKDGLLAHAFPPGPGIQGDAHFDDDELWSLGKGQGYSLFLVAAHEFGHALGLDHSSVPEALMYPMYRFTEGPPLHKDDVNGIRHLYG
Description: (§1) The ThermoFluor® (TF) assay is a 384-well plate-based binding assay that measures thermal stability of proteins (Biomol Screen 2001, 6, 429-40; Biochemistry 2005, 44, 5258-66). The experiments were carried out using instruments available from Johnson & Johnson Pharmaceutical Research & Development, LLC. TF dye used in all experiments was […] (1,8-ANS) (Invitrogen: A-47).
(§2) Compounds were arranged in a pre-dispensed plate (Greiner Bio-one: 781280), wherein compounds were serially diluted in 100% DMSO across 11 columns within a series. Columns 12 and 24 were used as DMSO reference and contained no compound. For multiple compound concentration-response experiments, the compound aliquots (50 nL) were robotically predispensed directly into black 384-well polypropylene PCR microplates (Abgene: TF-0384/k) using a Cartesian Hummingbird liquid handler (DigiLab, Holliston, Mass.). Following compound dispense, protein and dye solutions were added to achieve the final assay volume of 3 μL. The assay solutions were overlayed with 1 μL of silicone oil (Fluka, type DC 200: 85411) to prevent evaporation.
(§3) Assay plates were robotically loaded onto a thermostatically controlled PCR-type thermal block and then heated from 40 to 90° C. at a ramp-rate of 1° C./min for all experiments. Fluorescence was measured by continuous illumination with UV light (Hamamatsu LC6) supplied via fiber optics and filtered through a band-pass filter (380-400 nm; >60D cutoff). Fluorescence emission of the entire 384-well plate was detected by measuring light intensity using a CCD camera (Sensys, Roper Scientific) filtered to detect 500±25 nm, resulting in simultaneous and independent readings of all 384 wells. A single image with 20-sec exposure time was collected at each temperature, and the sum of the pixel intensity in a given area of the assay plate was recorded vs temperature and fit to standard equations to yield the Tm (J Biomol Screen 2001, 6, 429-40).
(§4) Thermodynamic parameters necessary for fitting compound binding for each proMMP were estimated by differential scanning calorimetry (DSC) and from ThermoFluor® data. The heat capacity of unfolding for each protein was estimated from the molecular weight and from ThermoFluor® dosing data.
ThermoFluor® with proMMP9(20-445; ΔFnII (SEQ ID NO:6)
The protein sample preparations included a desalting buffer exchange step via a PD-10 gravity column (GE Healthcare). The desalting buffer exchange was performed prior to diluting the protein to the final assay concentration of 2.8 μM proMMP9(20-445;ΔFnII) (SEQ ID NO:6). The concentration of proMMP9(20-445;ΔFnII) (SEQ ID NO:6) was determined spectrophotometrically based on a calculated extinction coefficient of ε280=39880 M^−1 cm^−1, a calculated molecular weight of 28.2 kDa, and calculated pI of 5.5. ThermoFluor® reference conditions were define as follows: 80 μg/mL (2.8 μM) proMMP9(20-445;ΔFnII) (SEQ ID NO:6), 50 μM 1,8-ANS, pH 7.0 Buffer (50 mM HEPES pH 7.0, 100 mM NaCl, 0.001% Tween-20, 2.5 mM MgCl2, 300 μM CaCl2). The thermodynamic parameters for proMMP9(20-445;ΔFnII) (SEQ ID NO:6) are as follows: Tm (° C.)=72 (+/−0.1), ΔUH(Tm) (cal mol^−1)=160000(+/−5000), ΔUSTm (cal mol^−1 K^−1)=434, ΔUCp (cal mol^−1 K^−1)=2400.

[2] = target: T2, full-length proMMP9(1-707) activation by catalytic MMP3 (Homo sapiens, UniProt P14780, R574P); test: proMMP9/MMP3 P126 Activation Assay; format: biochemical
T2 construct: made in house; host or cells: proMMP9: HEK293 (secreted); MMP3: E. coli
Description: proMMP9/MMP3 P126 Activation Assay
The reaction volume was 50 μL. […] Reactivity of residual MMP3 towards P-126 substrate was minimal under these conditions.

[3] = target: T3, proMMP9(67-444;ΔFnII) (SEQ ID NO:5) (Homo sapiens, UniProt P14780, DEL216-390); test: ThermoFluor binding assay with proMMP9(67-444;ΔFnII)
T3 construct: start methionine (N); made in house; host or cells: E. coli BL21(DE3) RIL
T3 sequence (P14780 with tags, fused parts or gaps DEL216-390): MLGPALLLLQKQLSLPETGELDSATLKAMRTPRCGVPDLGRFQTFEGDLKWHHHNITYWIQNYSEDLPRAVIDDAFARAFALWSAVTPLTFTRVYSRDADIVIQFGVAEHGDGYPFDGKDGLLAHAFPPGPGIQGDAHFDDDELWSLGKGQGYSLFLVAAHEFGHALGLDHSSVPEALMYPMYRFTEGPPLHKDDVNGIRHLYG
Description: as §1, §2, §3, §4
ThermoFluor® with proMMP9(67-444;ΔFnM (SEQ ID NO:5)
The protein sample preparations had to include a desalting buffer exchange step via a PD-10 gravity column (GE Healthcare). The desalting buffer exchange was performed prior to diluting the protein to the final assay concentration of 3.5 μM proMMP9(67-444;ΔFnII) (SEQ ID NO:5). The concentration of proMMP9(67-444;ΔFnII) (SEQ ID NO:5) was determined spectrophotometrically based on a calculated extinction coefficient of ε280=33900 M^−1 cm^−1, a calculated molecular weight of 22.6 kDa, and calculated pI of 5.20. ThermoFluor® reference conditions were defined as follows: 80 μg/mL (3.5 μM) proMMP9(67-444;ΔFnII) (SEQ ID NO:5), 50 μM 1,8-ANS, pH 7.0 Buffer (50 mM HEPES pH 7.0, 100 mM NaCl, 0.001% Tween-20, 2.5 mM MgCl2, 300 μM CaCl2). The thermodynamic parameters for proMMP9(67-444;ΔFnII) (SEQ ID NO:5) are as follows: Tm (° C.)=63 (+/−0.1), ΔUH(Tm)(cal mol^−1)=105000(+/−5000), ΔUS(Tm) (cal mol^−1 K^−1)=450, ΔUCp (cal mol^−1 K^−1)=2000.

T2 sequence (P14780 20-707 R574P): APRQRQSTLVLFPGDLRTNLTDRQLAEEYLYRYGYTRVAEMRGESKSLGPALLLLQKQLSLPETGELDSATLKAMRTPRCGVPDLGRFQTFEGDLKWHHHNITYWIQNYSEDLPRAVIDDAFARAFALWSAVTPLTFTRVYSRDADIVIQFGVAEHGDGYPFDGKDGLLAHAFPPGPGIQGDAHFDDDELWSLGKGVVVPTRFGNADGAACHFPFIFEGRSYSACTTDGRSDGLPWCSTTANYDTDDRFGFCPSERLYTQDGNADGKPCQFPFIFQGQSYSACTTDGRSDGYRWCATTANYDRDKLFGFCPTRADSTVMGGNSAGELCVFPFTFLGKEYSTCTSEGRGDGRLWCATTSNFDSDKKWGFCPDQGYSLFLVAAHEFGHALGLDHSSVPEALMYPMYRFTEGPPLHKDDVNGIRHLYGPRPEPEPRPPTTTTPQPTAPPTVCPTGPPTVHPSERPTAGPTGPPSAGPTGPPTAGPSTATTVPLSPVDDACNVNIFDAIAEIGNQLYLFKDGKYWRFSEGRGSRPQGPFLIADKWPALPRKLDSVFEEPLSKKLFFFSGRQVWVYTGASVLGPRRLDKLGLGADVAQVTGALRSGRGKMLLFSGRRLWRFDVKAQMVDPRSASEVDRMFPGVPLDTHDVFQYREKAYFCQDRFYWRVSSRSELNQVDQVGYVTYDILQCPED

CNS(=O)(=O)c1ccc(OC)c(Nc2nc3c(ccc4c3ncn4C)s2)c1 [Example 82, 4-Methoxy-N-methyl-3-(6-methyl-6H-imidazo[4′,5′:3,4]-benzo[2,1-d]thiazol-2-ylamino)-benzenesulfonamide.HCl] gave a Kd [1] of 1500 nM, an IC50 [2] of 330 nM and a Kd [3] of 1100 nM.
Compound COc1ccc(N)cc1Nc1nc2c(ccc3c2ncn3C)s1 [Example 79, 4-Methoxy-N^3-(6-methyl-6H-imidazo[4′,5′:3,4]-benzo[2,1-d]thiazol-2-yl)-benzene-1,3-diamine.HCl] has a Kd [1] of 3200 nM, an IC50 [2] of 390 nM and a Kd [3] of 930 nM.
Work on COc1ccccc1Nc1nc2c(ccc3cnccc32)s1 [Example 100, (2-Methoxy-phenyl)-thiazolo[4,5-f]isoquinolin-2-yl-amine.TFA] yielded a Kd [1] of 76000 nM and an IC50 [2] of 1700 nM.
In the case of CCn1ncc2c3nc(Nc4cc(S(C)(=O)=O)ccc4OC)sc3ccc21 [Example 106, (6-Ethyl-6H-3-thia-1,6,7-triaza-as-indacen-2-yl)-(5-methanesulfonyl-2-methoxy-phenyl)-amine.TFA], the Kd [1] is reported as 600 nM, the IC50 [2] is reported as 190 nM and the Kd [3] is reported as 530 nM.
Cc1nc2ccc3sc(Nc4cc(S(C)(=O)=O)ccc4OC(C)C)nc3c2n1CC(F)(F)F [Example 145, (2-Isopropoxy-5-methanesulfonyl-phenyl)-[7-methyl-8-(2,2,2-trifluoro-ethyl)-8H-imidazo[4′,5′:3,4]benzo[2,1-d]thiazol-2-yl]-amine.TFA] showed a Kd [1] of 2500 nM, an IC50 [2] of 390 nM and a Kd [3] of 560 nM.
CCOc1ccccc1Nc1nc2c(ccc3sc(Nc4ccccc4OCC)nc32)s1 [Example 4, N,N′-Bis-(2-ethoxy-phenyl)-benzo[2,1-d;3,4-d′]bisthiazole-2,7-diamine.TFA] showed a Kd [1] of 67000 nM, an IC50 [2] of 4700 nM and a Kd [3] of 30000 nM.
For COc1ccccc1Nc1nc2c(ccc3c2cnn3C)s1 [Example 94, (2-Methoxy-phenyl)-(6-methyl-6H-3-thia-1,6,7-triaza-as-indacen-2-yl)-amine.TFA], the Kd [1] was 15000 nM, the IC50 [2] was 510 nM and the Kd [3] was 9200 nM.
For COc1ccc(Br)cc1Nc1nc2c(ccc3c2ncn3C)s1 [Example 69, (5-Bromo-2-methoxy-phenyl)-(6-methyl-6H-imidazo[4′,5%3,4]benzo[2,1-d]thiazol-2-yl)-amine.HCl], the Kd [1] was 430 nM, the IC50 [2] was 300 nM and the Kd [3] was 220 nM.
With CC(C)Oc1ccc(S(N)(=O)=O)cc1Nc1nc2c(ccc3c2cnn3C)s1 [Example 102, 4-Isopropoxy-3-(6-methyl-6H-3-thia-1,6,7-triaza-as-indacen-2-ylamino)-benzenesulfonamide.TFA] the Kd [1] was 250 nM, the IC50 [2] was 390 nM and the Kd [3] was 680 nM.
CC(C)Oc1ccc(C#N)cc1Nc1nc2c(ccc3c2ncn3C)s1 [Example 160, 4-isopropoxy-3-((6-methyl-6H-imidazo[4′,5′:5,6]benzo[1,2-d]thiazol-2-yl)amino)benzonitrile.HCl] gave a Kd [1] of 290 nM, an IC50 [2] of 160 nM and a Kd [3] of 75 nM.
In the case of COc1ccc(C(F)(F)F)cc1Nc1nc2c(ccc3c2ncn3C)s1 [Example 50, (2-Methoxy-5-trifluoromethyl-phenyl)-(6-methyl-6H-imidazo[4′,5′: 3,4]benzo[2,1-d]thiazol-2-yl)-amine.HCl], the Kd [1] is reported as 3000 nM, the IC50 [2] is reported as 1100 nM and the Kd [3] is reported as 1500 nM.
With Cn1cnc2c3nc(Nc4cccnc4)sc3ccc21 [Example 75, (6-Methyl-6H-imidazo[4′,5′:3,4]-benzo[2,1-d]thiazol-2-yl)-pyridin-3-yl-amine.HCl] the Kd [1] was over 95000 nM, the IC50 [2] was about 18000 nM and the Kd [3] was 15000 nM.
In the case of COc1ccc(S(C)(=O)=O)cc1Nc1nc2c(ccc3c2ccn3C)s1 [Example 163, N-(2-methoxy-5-(methylsulfonyl)phenyl)-6-methyl-6H-thiazolo[4,5-e]indol-2-amine.HCl], the Kd [1] is reported as 420 nM and the IC50 [2] is reported as 110 nM.
Compound COc1cc([N+](=O)[O-])ccc1Nc1nc2c(ccc3c2ncn3C)s1 [Example 83, (2-Methoxy-4-nitro-phenyl)-(6-methyl-6H-imidazo[4′,5′:3,4]benzo[2,1-d]thiazol-2-yl)-amine.HCl] has an IC50 [2] of about 100 nM.
Work on CCn1c(C)nc2ccc3sc(Nc4cnccc4OC)nc3c21 [Example 152, 8-Ethyl-N-(4-methoxypyridin-3-yl)-7-methyl-8H-imidazo[4′,5′:5,6]benzo[1,2-d]thiazol-2-amine] yielded an IC50 [2] of 550 nM.
Work on COc1ccc(S(N)(=O)=O)cc1Nc1nc2c(ccc3cnccc32)s1 [Example 104, 4-Methoxy-3-(thiazolo[4,5-f]isoquinolin-2-ylamino)-benzenesulfonamide.TFA] yielded a Kd [1] of 7700 nM and a Kd [3] of 6100 nM.
Compound Cn1ccc2c3nc(Nc4cc(S(N)(=O)=O)ccc4OC(F)(F)F)sc3ccc21 [Example 162, 3-((6-methyl-6H-thiazolo[4,5-e]indol-2-yl)amino)-4-(trifluoromethoxy)benzenesulfonamide.HCl] has a Kd [1] of 430 nM and an IC50 [2] of 640 nM.
Work on COc1ccc(C#N)cc1Nc1nc2c(ccc3cnccc32)s1 [Example 151, 4-Methoxy-3-(thiazolo[4,5-f]isoquinolin-2-ylamino)-benzonitrile.TFA] yielded a Kd [1] of over 95000 nM and an IC50 [2] of over 20000 nM.
With COc1ccc(C#N)cc1Nc1nc2c(ccc3ocnc32)s1 [Example 84, 4-Methoxy-3-(thiazolo[4′,5′:3,4]-benzo[2,1-d]oxazol-7-ylamino)-benzonitrile] the IC50 [2] was 750 nM.
CC(C)Cc1ccc(C(N)=O)cc1Nc1nc2c(ccc3c2ncn3C)s1 [Example 88, 4-Isobutyl-3-(6-methyl-6H-imidazo[4′,5′:3,4]-benzo[2,1-d]thiazol-2-ylamino)-benzamide] gave an IC50 [2] of 3900 nM.
CC(C)Oc1ccc(S(N)(=O)=O)cc1Nc1nc2c(ccc3c2ccn3C)s1 [Example 161, 4-isopropoxy-3-((6-methyl-6H-thiazolo[4,5-e]indol-2-yl)amino)benzenesulfonamide.HCl] showed a Kd [1] of 480 nM and an IC50 [2] of 340 nM.

Reference: patent publication US20120129811A1, “TRICYCLIC INHIBITORS OF PRO-MATRIX METALLOPROTEINASE ACTIVATION” (priority 2010, published 2012)
